Measured values from patent publication US20100298141A1, “SUBSTITUTED PYRIDINE N-OXIDE HERBICIDES” (E. I. DU PONT DE NEMOURS AND COMPANY, priority 2007, published 2010).

Legend:
johnsongrass = experiment: Test F preemergence test; format: in vivo, Sorghum halepense; conditions: scale 0 to 100
Procedure, shortened: (§1)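 Greenhouse screen: test chemical in surfactant-containing non-phytotoxic solvent applied preemergence to sown seeds or postemergence to sugarcane plants; after 14 to 21 days each species scored visually versus controls.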

goosegrass = experiment: Test F preemergence test; format: in vivo, Eleusine indica; conditions: scale 0 to 100
Procedure, shortened: as §1

southern sandbur = experiment: Test F preemergence test; format: in vivo, Cenchrus echinatus; conditions: scale 0 to 100
Procedure, shortened: as §1

field bindweed = experiment: Test F preemergence test; format: in vivo, Convolvulus arvensis; conditions: scale 0 to 100
Procedure, shortened: as §1

downy brome = experiment: Test C pre-/postemergence test; format: in vivo, Bromus tectorum
Procedure, shortened: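 Compounds in a non-phytotoxic solvent with surfactant applied preemergence to seeded pots and, at the same time, postemergence to plants 2–18 cm tall (1- to 4-leaf stage). Paddy tests: pots flooded to 3 cm, compound applied into the water, depth held throughout.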

itchgrass = experiment: Test F preemergence test; format: in vivo, Rottboellia cochinchinensis; conditions: scale 0 to 100
Procedure, shortened: as §1

Italian ryegrass = experiment: Test F preemergence test; format: in vivo, Lolium multiflorum; conditions: scale 0 to 100; for Plant response rating, Ryegrass, Italian: Preemergence
Procedure, shortened: as §1

common ragweed = experiment: Test F preemergence test; format: in vivo, Ambrosia elation; conditions: scale 0 to 100
Source text: Seeds of plant species selected from bermudagrass (Cynodon dactylon), Surinam grass (Brachiaria decumbens), large crabgrass (Digitaria sanguinalis), green foxtail (Setaria viridis), goosegrass (Eleusine indica), johnsongrass (Sorghum halepense), kochia (Kochia scoparia), pitted morningglory (Ipomoea lacunosa), purple nutsedge (Cyperus rotundus), common ragweed (Ambrosia elation), mustard (Brassica nigra), guineagrass (Panicum maximum), […] (Paspalum dilatatum), barnyardgrass (Echinochloa crus-galli), southern sandbur (Cenchrus echinatus), common sowthistle (Sonchus oleraceous), prickly […] spinosa), Italian ryegrass (Lolium multiflorum), common purslane (Portulaca oleracea), broadleaf signalgrass (Brachiaria platyphylla), common groundsel (Senecio vulgaris), common chickweed (Stellaria media), Virginia dayflower (Commelina virginica), annual bluegrass (Poa annua), naked crabgrass (Digitaria nuda), […] cochinchinensis), quackgrass (Elytrigia repens), Canada horseweed (Conyza canadensis), field bindweed (Convolvulus arvensis), […] (Bidens bipinnata), common mallow (Malva sylvestris), Russian thistle (Salsola kali), and sugarcane (Saccharum officinarum) were planted and treated preemergence with test chemicals formulated in a non-phytotoxic solvent mixture which included a surfactant. At a different time, sugarcane was treated with postemergence applications of some of the test chemicals formulated in the same manner. Plants were approximately 3- to 4-leaf stage for the postemergence treatments. Treated plants and controls were maintained in a greenhouse for 14 to 21 days, after which time all species were compared to controls and visually evaluated. […] A dash (-) response means no test result.

large crabgrass = experiment: Test F preemergence test; format: in vivo, Digitaria sanguinalis; conditions: scale 0 to 100
Procedure, shortened: as §1

green foxtail = experiment: Test F preemergence test; format: in vivo, Setaria viridis; conditions: scale 0 to 100
Procedure, shortened: as §1

Surinam grass = experiment: Test F preemergence test; format: in vivo, Brachiaria decumbens; conditions: scale 0 to 100; for Plant response rating, Surinam Grass: Preemergence
Procedure, shortened: as §1

crabgrass = experiment: Test A pre-/postemergence greenhouse test; format: in vivo, Digitaria sanguinalis; conditions: for Plant response rating, Crabgrass, Large: 0 to 100 scale where 0 is no effect and 100 is complete control; for Crabgrass, Large plant response rating: 0 to 100 scale
Procedure, shortened: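 Test compounds in non-phytotoxic solvent with surfactant were applied as a preemergence soil spray to seeded loam/sand pots and, concurrently, postemergence to plants at 2–10 cm, one- to two-leaf stage. About ten days in greenhouse, then injury visually rated against untreated controls.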

Cc1cc([S+]([O-])Cc2c(C(F)(F)F)nn(C)c2OCC(F)(F)F)[n+]([O-])cc1Cl (stereo not drawn) [Compound 70]
Plant response rating, Johnsongrass (johnsongrass; 16 g ai/ha, preemergence): 90 | Johnsongrass plant response rating (johnsongrass; 62 g ai/ha, Preemergence): 100 | Johnsongrass plant response rating (johnsongrass; 125 g ai/ha, preemergence): 100 | Plant response rating, Johnsongrass (johnsongrass; Preemergence, 31 g ai/ha): 90 | Plant response rating, Goosegrass (goosegrass; 16 g ai/ha, preemergence): 60 | Goosegrass plant response rating (goosegrass; 62 g ai/ha, Preemergence): 80 | Goosegrass plant response rating (goosegrass; 125 g ai/ha, preemergence): 100 | Plant response rating, Goosegrass (goosegrass; Preemergence, 31 g ai/ha): 80 | Plant response rating, Sandbur (southern sandbur; 16 g ai/ha, preemergence): 65 | Sandbur plant response rating (southern sandbur; 125 g ai/ha, preemergence): 100 | Plant response rating, Sandbur (southern sandbur; Preemergence, 62 g ai/ha): 75 | Plant response rating, Field Bindweed (field bindweed; 16 g ai/ha, preemergence): 40 | Field Bindweed plant response rating (field bindweed; 62 g ai/ha, Preemergence): 40 | Field Bindweed plant response rating (field bindweed; 125 g ai/ha, preemergence): 40 | Plant response rating, Field Bindweed (field bindweed; Preemergence, 31 g ai/ha): 40 | Bromegrass, Downy plant response rating (downy brome; 62 g ai/ha, Preemergence, scale 0 to 100): 80 | Bromegrass, Downy plant response rating (downy brome; 125 g ai/ha, preemergence, scale 0 (no effect) to 100 (complete control)): 100 | Bromegrass, Downy plant response rating (downy brome; preemergence, 250 g ai/ha, scale 0 (no effect) to 100 (complete control)): 100 | Plant response rating, Itchgrass (itchgrass; 16 g ai/ha, preemergence): 80 | Itchgrass plant response rating (itchgrass; 62 g ai/ha, Preemergence): 80 | Itchgrass plant response rating (itchgrass; 125 g ai/ha, preemergence): 100 | Plant response rating, Itchgrass (itchgrass; Preemergence, 31 g ai/ha): 80 | Ryegrass, Italian plant response rating (Italian ryegrass; 125 g ai/ha, preemergence): 100 | Plant response rating, Ryegrass, Italian (Italian ryegrass; 62 g ai/ha): 100 | Plant response rating, Ryegrass, Italian (Italian ryegrass; 31 g ai/ha): 75 | Plant response rating, Ragweed (common ragweed; 16 g ai/ha, preemergence): 60 | Plant response rating, Ragweed (common ragweed; Preemergence, 62 g ai/ha): 80 | Plant response rating, Ragweed (common ragweed; Preemergence, 31 g ai/ha): 60 | Plant response rating, Crabgrass, Large (large crabgrass; 16 g ai/ha, preemergence): 35 | Crabgrass, Large plant response rating (large crabgrass; 62 g ai/ha, Preemergence): 70 | Crabgrass, Large plant response rating (large crabgrass; 125 g ai/ha, preemergence): 98 | Plant response rating, Crabgrass, Large (large crabgrass; Preemergence, 31 g ai/ha): 50 | Foxtail, Green plant response rating (green foxtail; 62 g ai/ha, Preemergence): 75 | Foxtail, Green plant response rating (green foxtail; 125 g ai/ha, preemergence): 90 | Plant response rating, Foxtail, Green (green foxtail; Preemergence, 31 g ai/ha): 65 | Surinam Grass plant response rating (Surinam grass; 125 g ai/ha, preemergence): 100 | Plant response rating, Surinam Grass (Surinam grass; 62 g ai/ha): 98 | Plant response rating, Surinam Grass (Surinam grass; 31 g ai/ha): 40 | Plant response rating, Crabgrass, Large (crabgrass; Postemergence, 125 g ai/ha): 50 | Crabgrass, Large plant response rating (crabgrass; Postemergence, 500 g ai/ha, 0 is no effect, 100 is complete control): 80 | Crabgrass, Large plant response rating (crabgrass; Preemergence, 125 g ai/ha, 0 no effect, 100 complete control): 90 | Plant response rating, Crabgrass, Large (crabgrass; Preemergence, 500 g ai/ha): 100
